Reference: PubChem BioAssay (NCI)
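Method: 48-hour compound exposure of cells in 96-well plates, five concentrations, linear interpolation of endpoints. GI50 = concentration required for 50% inhibition of growth. TGI is the concentration that stops growth completely.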 Where a SMILES comes first, the peptide text is derived from it.

What was measured:
Assay in all cases: NCI tumour cell line growth inhibition, 48 h
[1] = system: CAKI-1 renal
[2] = system: COLO 205 colon
[3] = system: HS 578T breast
[4] = system: MALME-3M melanoma
[5] = system: MDA-N
[6] = system: MOLT-4 leukemia
[7] = system: PC-3 prostate
[8] = system: SK-MEL-28 melanoma
[9] = system: SN12C renal
[10] = system: UACC-257 melanoma

| SMILES | TGI [1] [µM] | TGI [2] [µM] | TGI [3] [µM] | TGI [4] [µM] | TGI [5] [µM] | TGI [6] [µM] | TGI [7] [µM] | TGI [8] [µM] | TGI [9] [µM] | TGI [10] [µM] | GI50 [4] [µM] |
| --- | --- | --- | --- | --- | --- | --- | --- | --- | --- | --- | --- |
| O=c1[nH]c2ccc(C(F)(F)F)cc2nc1-c1ccccc1 | > 100 | > 100 | > 100 | > 100 | > 100 | > 100 | > 100 | > 100 | > 100 | > 100 |  |
| CN(C)c1nc(N(C)C)nc(N(C)C)n1 | > 140 | > 150 | > 150 | > 150 | > 150 | 136 | > 150 | > 150 | > 150 | > 150 |  |
| CC(C)(C)OC(=O)[N+](=N)C(=O)C1CCC(=O)N1C(=O)OCc1ccccc1 (centres undefined) | > 100 | > 100 | > 100 | > 100 | > 100 | > 100 | > 100 | > 100 | > 100 |  |  |
| Cc1ccc2c(c1)SSSSS2 | 36 | 97.9 | 69.6 | 44.6 | 87.1 | > 100 | 57.8 | 65.4 | 46.7 | 38.5 |  |
| O=c1c2ccccc2nc2n1NC(c1c(Cl)cccc1Cl)N2c1cccc(Cl)c1 (centres undefined) | 47.2 | > 100 | > 100 | 29.7 | > 100 | > 100 | 28.1 | > 100 | 21.9 | > 100 |  |
| C=C1C(=O)O[C@@H]2[C@H]3O[C@]3(C)CCC=C(C)CC[C@@H]12 | 22.5 | 31.7 |  | 25.3 |  | 92 |  | 44.3 | 50.2 | 34.9 |  |
| CC(=O)OCC1OC(On2ccccc2=S)C(OC(C)=O)C(OC(C)=O)C1OC(C)=O (centres undefined) | > 100 | > 100 | > 100 | > 100 | > 100 | > 100 | > 100 | > 100 | > 100 | > 100 |  |
| CSC(SC)=C1CC(=O)Nc2ccccc2C1=O | 94.1 | > 100 | > 100 | > 100 | > 100 | 96 | > 100 | > 100 | > 100 | > 100 |  |
| Cc1ccc(Nc2nc(=S)[nH]c3[nH]ncc23)cc1 | > 100 | > 100 | > 100 | > 100 |  | > 100 | > 100 | > 100 | > 100 | > 100 |  |
| OC1(c2ccccc2)CC2CCC(C1)N2CCc1ccccc1 (centres undefined) | > 100 | 35.7 | 80.6 | > 100 | > 100 | > 100 | > 100 | > 100 | > 100 | 59.1 |  |
| NC(=O)NC(=O)c1cnccn1 | > 100 |  |  | > 100 | > 100 | > 100 | > 100 | > 100 | > 100 | > 100 |  |
| CN(C)CCCNc1c(O)c2c(c(O)c1Cl)C(=O)C=CC2=O | > 10 | 3.07 | 3.65 | 3.25 | 6.38 | 5.04 | 6.83 | 2.85 | 3.2 | 3.71 |  |
| COc1cc(NS(C)(=O)=O)ccc1NCc1cnc2ccc3[nH]c(C)ccc3c12 | 68.8 | > 100 | > 100 | > 100 | > 100 | 44.7 | > 100 | > 100 | > 100 | > 100 |  |
| Cc1cc2nc3n[nH]c(N)c3nc2cc1C | > 100 | > 100 | > 100 | > 100 | > 100 | > 100 | > 100 | > 100 | > 100 | > 100 |  |
| COc1ccc(/C=C2\C=Cc3ccccc32)cc1OC | > 100 | > 100 | 89.6 | > 100 | > 100 | > 100 | > 100 | > 100 | > 100 | > 100 |  |
| CCN(CC)C(=S)SS(=O)(=O)c1ccccc1C(=O)O | > 100 | > 100 | > 100 | > 100 | > 100 | > 100 | > 100 | > 100 | > 100 | > 100 |  |
| CC1NC(=O)CNC(=O)CNC(=O)C(Cc2ccc(O)cc2)NC(=O)C(C(C)C)NC(=O)C(C)NC1=O (centres undefined) (cyclo(GGAAVY); configuration not given here) | > 100 | > 100 |  | > 100 |  | > 100 |  | > 100 | > 100 | > 100 | > 100 |
| Cc1ccc(S(=O)ON2CCC(C(=O)O)(c3ccccc3)CC2)cc1 (centres undefined) | > 100 | > 100 | > 100 | > 100 | > 100 | > 100 | > 100 | > 100 | > 100 | > 100 |  |
| O=C(O)CC(C(=O)O)c1ccccc1[N+](=O)[O-] (centres undefined) | > 100 | > 100 | > 100 | > 100 | > 100 |  | > 100 | > 100 | > 100 | > 100 |  |
| O=C(NN=C1CCN(Cc2ccccc2)CC1)C(O)(c1ccccc1)c1ccccc1 |  | > 100 | > 100 | > 100 |  | > 100 |  | > 100 | > 100 | > 100 |  |
| CCCCCCCCC[C@@H]1C[C@@H]2CCC3C(C(=O)OC)=C(C)NC(=N1)N32 (some centres undefined) | 37.8 | 15.1 | 34.7 | 29 |  | > 100 | 18.3 | > 100 | 32.5 | 27 |  |
| COc1ccc2c(c1)C(N)CC2=O (centres undefined) | > 100 | > 100 | > 100 |  |  | > 100 | 34.8 | > 100 | > 100 | > 100 |  |
| Brc1cccc(/C=C/CN2CCN(CCOC(c3ccccc3)c3ccccc3)CC2)c1 | 30.2 | 36.2 | 52 | 31.5 | 32.9 | 31.1 | 26.5 | 37.5 | 32.3 | 33.4 |  |
